Results published in PubChem BioAssay AID1963983 (Molecular Pharmacology Branch, DTP, NCI, 2024).
pIC50: −log10 of the molar value.

System: 186277-243-T-J2-PDC multi-cell spheroid viability
Assay: Anticancer human tumor 186277-243-T-J2-PDC patient-derived colon adenocarcinoma cell line growth inhibition [PI3K]
Settings: for pIC50: curve of first compound; for viability, T/C: stronger effect = lower value
Procedure, shortened: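 Stroma-containing spheroids: tumor line, pooled-donor HUVEC, hMSC. Treatments: targeted agents with PI3K inhibitors. Dosing: clinically relevant, half-log spacing, 10 microM ceiling without known Cmax. Read-out: cell viability.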

[1] = second compound 0.0316 µM, first compound 0.0316 µM
[2] = second compound 0.0316 µM, first compound 0.1 µM
[3] = second compound 0.0316 µM, first compound 0.316 µM
[4] = second compound 0.0316 µM, first compound 1 µM
[5] = second compound 0.0316 µM, first compound 3.16 µM
[6] = second compound 0.0316 µM, first compound 10 µM
[7] = second compound 0.1 µM, first compound 0.0316 µM
[8] = second compound 0.1 µM, first compound 0.1 µM
[9] = second compound 0.1 µM, first compound 0.316 µM
[10] = second compound 0.1 µM, first compound 1 µM
[11] = second compound 0.1 µM, first compound 3.16 µM
[12] = second compound 0.1 µM, first compound 10 µM
[13] = second compound 0.316 µM, first compound 0.0316 µM
[14] = second compound 0.316 µM, first compound 0.1 µM
[15] = second compound 0.316 µM, first compound 0.316 µM
[16] = second compound 0.316 µM, first compound 1 µM
[17] = second compound 0.316 µM, first compound 3.16 µM
[18] = second compound 0.316 µM, first compound 10 µM
[19] = second compound 1 µM, first compound 0.0316 µM
[20] = second compound 1 µM, first compound 0.1 µM
[21] = second compound 1 µM, first compound 0.316 µM
[22] = second compound 1 µM, first compound 1 µM
[23] = second compound 1 µM, first compound 3.16 µM
[24] = second compound 1 µM, first compound 10 µM
[25] = second compound 3.16 µM, first compound 0.0316 µM
[26] = second compound 3.16 µM, first compound 0.1 µM
[27] = second compound 3.16 µM, first compound 0.316 µM
[28] = second compound 3.16 µM, first compound 1 µM
[29] = second compound 3.16 µM, first compound 3.16 µM
[30] = second compound 3.16 µM, first compound 10 µM
[31] = second compound 10 µM, first compound 0.0316 µM
[32] = second compound 10 µM, first compound 0.1 µM
[33] = second compound 10 µM, first compound 0.316 µM
[34] = second compound 10 µM, first compound 1 µM
[35] = second compound 10 µM, first compound 3.16 µM
[36] = second compound 10 µM, first compound 10 µM
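Also: spheroids exposed to compounds for seven days before viability reading.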
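For viability, T/C in this document: 100% = DMSO vehicle control viability.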

`CC1(C)CCC(CN2CCN(c3ccc(C(=O)NS(=O)(=O)c4ccc(NCC5CCOCC5)c([N+](=O)[O-])c4)c(Oc4cnc5[nH]ccc5c4)c3)CC2)=C(c2ccc(Cl)cc2)C1` + Cc1nc(NC(=O)N2CCCC2C(N)=O)sc1-c1ccnc(C(C)(C)C(F)(F)F)c1 gave a pIC50 (second compound 0.0316 µM) of 5.33, a pIC50 (second compound 0.1 µM) of 5.35 and a pIC50 (second compound 0.316 µM) of 5.36. For the same compound, the pIC50 (second compound 1 µM) was 5.41, the pIC50 (second compound 3.16 µM) was 5.82 and the pIC50 (second compound 10 µM) was greater than 7.50. For the same compound, the viability, T/C [1] was 101%, the viability, T/C [2] was 92.7% and the viability, T/C [3] was 106%. The viability, T/C [4] was 89.9%, the viability, T/C [5] was 74.6% and the viability, T/C [6] was 3.75%. The viability, T/C [7] was 96.5%, the viability, T/C [8] was 109% and the viability, T/C [9] was 95.3%. The viability, T/C [10] was 101%, the viability, T/C [11] was 69.8% and the viability, T/C [12] was 2.39%. It also gave a viability, T/C [13] of 101%, a viability, T/C [14] of 85.7% and a viability, T/C [15] of 111%. It also gave a viability, T/C [16] of 104%, a viability, T/C [17] of 68.2% and a viability, T/C [18] of 2.68%. The viability, T/C [19] was 101%, the viability, T/C [20] was 112% and the viability, T/C [21] was 96.9%. The viability, T/C [22] was 89.7%, the viability, T/C [23] was 61.5% and the viability, T/C [24] was 0.93%. For the same compound, the viability, T/C [25] was 54.2%, the viability, T/C [26] was 61.3% and the viability, T/C [27] was 58.9%. The viability, T/C [28] was 51.8%, the viability, T/C [29] was 43% and the viability, T/C [30] was 0.38%. The viability, T/C [31] was 16.6%, the viability, T/C [32] was 15.8% and the viability, T/C [33] was 16.6%. For the same compound, the viability, T/C [34] was 12.8%, the viability, T/C [35] was 13.8% and the viability, T/C [36] was 0.48%.
`CCCS(=O)(=O)Nc1ccc(F)c(C(=O)c2c[nH]c3ncc(-c4ccc(Cl)cc4)cc23)c1F` + Cc1nc(NC(=O)N2CCCC2C(N)=O)sc1-c1ccnc(C(C)(C)C(F)(F)F)c1 gave a pIC50 (second compound 0.0316 µM) of 5.27, a pIC50 (second compound 0.1 µM) of 5.27 and a pIC50 (second compound 0.316 µM) of 5.32. The pIC50 (second compound 1 µM) was 5.31, the pIC50 (second compound 3.16 µM) was 5.37 and the pIC50 (second compound 10 µM) was greater than 7.50. For the same compound, the viability, T/C [1] was 88.2%, the viability, T/C [2] was 76.7% and the viability, T/C [3] was 88.5%. It also gave a viability, T/C [4] of 89.2%, a viability, T/C [5] of 89% and a viability, T/C [6] of 8.5%. It also gave a viability, T/C [7] of 98.1%, a viability, T/C [8] of 105% and a viability, T/C [9] of 89.6%. The viability, T/C [10] was 94.9%, the viability, T/C [11] was 87.2% and the viability, T/C [12] was 7.3%. It also gave a viability, T/C [13] of 113%, a viability, T/C [14] of 103% and a viability, T/C [15] of 89.2%. It also gave a viability, T/C [16] of 88%, a viability, T/C [17] of 78.7% and a viability, T/C [18] of 7.15%. The viability, T/C [19] was 95.8%, the viability, T/C [20] was 104% and the viability, T/C [21] was 98.5%. It also gave a viability, T/C [22] of 91.9%, a viability, T/C [23] of 76.5% and a viability, T/C [24] of 6.14%. For the same compound, the viability, T/C [25] was 67.6%, the viability, T/C [26] was 81.6% and the viability, T/C [27] was 81.1%. For the same compound, the viability, T/C [28] was 82%, the viability, T/C [29] was 65.6% and the viability, T/C [30] was 5.53%. For the same compound, the viability, T/C [31] was 15.2%, the viability, T/C [32] was 17.1% and the viability, T/C [33] was 26.6%. It also gave a viability, T/C [34] of 35.3%, a viability, T/C [35] of 38.8% and a viability, T/C [36] of 2.29%.
In the case of `CNC(=O)c1ccc(N2C(=S)N(c3ccc(C#N)c(C(F)(F)F)c3)C(=O)C2(C)C)cc1F` + Cc1nc(NC(=O)N2CCCC2C(N)=O)sc1-c1ccnc(C(C)(C)C(F)(F)F)c1, the pIC50 (second compound 0.0316 µM) was less than 5.00, the pIC50 (second compound 0.1 µM) was less than 5.00 and the pIC50 (second compound 0.316 µM) was less than 5.00. For the same compound, the pIC50 (second compound 1 µM) was less than 5.00, the pIC50 (second compound 3.16 µM) was less than 5.00 and the pIC50 (second compound 10 µM) was greater than 7.50. It also gave a viability, T/C [1] of 83.5%, a viability, T/C [2] of 90% and a viability, T/C [3] of 102%. The viability, T/C [4] was 91.9%, the viability, T/C [5] was 103% and the viability, T/C [6] was 109%. The viability, T/C [7] was 106%, the viability, T/C [8] was 92.5% and the viability, T/C [9] was 109%. For the same compound, the viability, T/C [10] was 100%, the viability, T/C [11] was 114% and the viability, T/C [12] was 95.4%. For the same compound, the viability, T/C [13] was 97.1%, the viability, T/C [14] was 95.5% and the viability, T/C [15] was 92%. The viability, T/C [16] was 115%, the viability, T/C [17] was 102% and the viability, T/C [18] was 86.1%. It also gave a viability, T/C [19] of 106%, a viability, T/C [20] of 96% and a viability, T/C [21] of 111%. It also gave a viability, T/C [22] of 105%, a viability, T/C [23] of 103% and a viability, T/C [24] of 86%. For the same compound, the viability, T/C [25] was 62.7%, the viability, T/C [26] was 62.6% and the viability, T/C [27] was 66.4%. It also gave a viability, T/C [28] of 66.7%, a viability, T/C [29] of 70.1% and a viability, T/C [30] of 58.7%. It also gave a viability, T/C [31] of 13.9%, a viability, T/C [32] of 17.7% and a viability, T/C [33] of 14.7%. For the same compound, the viability, T/C [34] was 14%, the viability, T/C [35] was 15.5% and the viability, T/C [36] was 13.8%.
